Six molecules from the supplement of paper PMC5579334 can be followed below.

± gives the standard deviation of the averaged measurements.

Assay [1] relates to HS-PSS. The assay can be described thus: drug sensitivity score (DSS, CellTox-Green cytotoxicity, 72 h) (DSS (dimensionless)); higher = more cytotoxic; extreme values may be limits of the assay. In a few lines:
(§1)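 For 72 h at 37 °C, MPNST cell lines and primary human Schwann cells were exposed in 384-well plates to five 10-fold compound dilutions. CellTox-Green, added before seeding at a final 1:1000 dilution, gave fluorescence from DNA released by disrupted cells. Signals were scaled to vehicle and positive-control wells, cultures failing plate quality control were left out, and four-parameter logistic fits were applied. Relative IC50 and drug sensitivity score were derived from the fits, with IC50 censored at the top concentration.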

Assay [2] has as its system HSC2 (primary human Schwann cells). The description is as above. Put shortly:
as §1

In assay [3] the test system is ST8814. Described as above. In a few lines: as §1
Assay [4] concerns STS26T. The assay is described as above. In a few lines: as §1
Assay [5] has as its system HSC1 (primary human Schwann cells). The description is as above. In a few lines: as §1
Assay [6] has as its system S1507-2. Described as above. In a few lines:
as §1

Assay [7] deals with HS-PSS. The assay can be described thus: drug sensitivity score (DSS, CellTiter-Glo viability, 72 h) (DSS (dimensionless)); higher = more sensitive; extreme values may be limits of the assay. In a few lines:
(§2)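 MPNST cell lines and primary human Schwann cells were seeded at 750–1000 cells per well into 384-well plates preprinted with each compound at five concentrations in 10-fold steps, then incubated 72 h at 37 °C, 5% CO2. CellTiter-Glo ATP luminescence gave viability, scaled between vehicle and positive-control wells, with duplicates averaged where present. Curves were fitted with a four-parameter logistic model. Percent inhibition refers to the top concentration, while drug sensitivity score and relative IC50, censored at the top concentration, come from these fits.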

Assay [8] relates to HSC2 (primary human Schwann cells). The assay is described as above. In a few lines: as §2
Assay [9] deals with ST8814. The description is as above. In a few lines: as §2
Assay [10] has as its system YST-1. Described as above. In a few lines: as §2
In assay [11] the test system is S462. Described as above. Put shortly:
as §2

Assay [12] has as its system STS26T. The assay is described as above. In a few lines: as §2
For assay [13], the system named is HS-Sch-2. The description is as above. Put shortly:
as §2

In assay [14] the test system is HSC1 (primary human Schwann cells). Described as above. Put shortly: as §2
For assay [15], the system named is S1507-2. Described as above. Put shortly: as §2
Assay [16] relates to HS-PSS. The assay can be described thus: % inhibition of CellTiter-Glo viability at highest tested concentration (72 h), relative to DMSO and benzethonium chloride controls; higher = more inhibition. In a few lines:
as §2

For assay [17], the system named is HSC2 (primary human Schwann cells). Described as above. Put shortly: as §2
Assay [18] has as its system ST8814. The assay is described as above. In a few lines: as §2
Assay [19] concerns YST-1. Described as above. Put shortly:
as §2

Assay [20] deals with S462. The assay is described as above. In a few lines: as §2
The test system of assay [21] is STS26T. The assay is described as above. Put shortly: as §2
The subject of assay [22] is HS-Sch-2. The assay is described as above. In a few lines:
as §2

Assay [23] relates to HSC1 (primary human Schwann cells). The description is as above. In a few lines:
as §2

Assay [24] concerns S1507-2. The description is as above. In a few lines: as §2

`CO[C@@H](C(=O)N1Cc2[nH]nc(NC(=O)c3ccc(N4CCN(C)CC4)cc3)c2C1)c1ccccc1` [Danusertib] (max concentration tested 10000 nM): the drug sensitivity score in the assay on HS-PSS [1] turned out to be 2.75; in assay [2] it was 7.05; in the assay with ST8814 [3], 6.94; with STS26T [4], 3.88; in [5], 6.43; in the assay on S1507-2 [6] it was 1.16 ± 0.24. The drug sensitivity score in the assay with HS-PSS [7] was found to be 8.49; in assay [8], 10.4; in the assay with ST8814 [9], 8.83; in the assay with YST-1 [10], 12.9; with S462 [11], 13.9 ± 0.31; in the assay on STS26T [12] it was 5.54. For the same molecule, the drug sensitivity score came to 11.1 with HS-Sch-2 [13], 11.4 in assay [14] and 8.76 ± 2 in the assay on S1507-2 [15]. The “% inhibition” value with HS-PSS [16] was 80.7%; in assay [17], 90.9%; in the assay on ST8814 [18], 85.7%; with YST-1 [19] it was 46.4%; in the assay on S462 [20], 88.7 ± 1.7%; in the assay on STS26T [21], 52.5%. Besides, the “% inhibition” value in the assay on HS-Sch-2 [22] was determined as 76.3%; in [23], 88.1%; with S1507-2 [24] it was 66.7 ± 10%.

For `O=C(/C=C/c1cccnc1)NCCCCC1CCN(C(=O)c2ccccc2)CC1` [Daporinad] (max concentration tested 1000 nM), the drug sensitivity score with HS-PSS [1] worked out at 0; in assay [2], 0; in the assay on ST8814 [3] it was 0; in the assay on STS26T [4] it was 9.24; in [5], 0; in the assay with S1507-2 [6] it was 0. For the same molecule, the drug sensitivity score with HS-PSS [7] was 25; in assay [8], 21.9; with ST8814 [9], 24.1; in the assay on YST-1 [10] it was 31.1; in the assay on S462 [11], 28.6 ± 0.7; in the assay on STS26T [12] it was 16.4. Besides, the drug sensitivity score stood at 29.8 with HS-Sch-2 [13], 18.8 in [14] and 15.02 ± 0.15 in the assay with S1507-2 [15]. Also, the “% inhibition” value was 90.9% in the assay on HS-PSS [16]; 83.4% in assay [17]; 93.2% in the assay with ST8814 [18]; 101% in the assay with YST-1 [19]; 100.3 ± 0.6% in the assay with S462 [20]; 95.5% in the assay on STS26T [21]. Moreover, the “% inhibition” value in the assay with HS-Sch-2 [22] is 101%; in assay [23], 70.9%; in the assay with S1507-2 [24] it was 87.9 ± 6.3%.

Turning to `Cc1nc(Nc2ncc(C(=O)Nc3c(C)cccc3Cl)s2)cc(N2CCN(CCO)CC2)n1` [Dasatinib] (max concentration tested 1000 nM), the drug sensitivity score in the assay on HS-PSS [1] stood at 0; in assay [2], 0; in the assay on ST8814 [3], 4.56; with STS26T [4] it was 3.95; in assay [5], 0; in the assay with S1507-2 [6], 1.53 ± 1.1. Besides, the drug sensitivity score in the assay with HS-PSS [7] was determined as 0.97; in assay [8] it was 5.78; with ST8814 [9], 10.2; with YST-1 [10], 4.94; with S462 [11] it was 4.46 ± 0.87; with STS26T [12] it was 11.7. Also, the results for the drug sensitivity score (in the assay with HS-Sch-2 [13]; in assay [14]; in the assay on S1507-2 [15]) were 7.09, 8.49 and 12.3 ± 1.8, respectively. In addition, the “% inhibition” value in the assay with HS-PSS [16] was 19.3%; in assay [17], 49.2%; in the assay with ST8814 [18], 65.5%; in the assay on YST-1 [19], 20.6%; with S462 [20], 30.9 ± 1.7%; in the assay with STS26T [21], 64.8%. The “% inhibition” value was 58.5% in the assay on HS-Sch-2 [22], 60% in assay [23] and 82.6 ± 2.6% in the assay with S1507-2 [24].

Regarding `COc1cccc2c1C(=O)c1c(O)c3c(c(O)c1C2=O)C[C@@](O)(C(C)=O)C[C@@H]3O[C@H]1C[C@H](N)[C@H](O)[C@H](C)O1` [Daunorubicin] (max concentration tested 1000 nM), the drug sensitivity score was 0 with HS-PSS [1]; 3.16 in assay [2]; 1.13 in the assay on ST8814 [3]; 3.13 in the assay on STS26T [4]; 2.35 in assay [5]; 0 with S1507-2 [6]. Further, the drug sensitivity score was 9.45 with HS-PSS [7]; 12.7 in [8]; 9.95 with ST8814 [9]; 17.9 in the assay with YST-1 [10]; 14.9 ± 0.27 with S462 [11]; 12.9 in the assay on STS26T [12]. In addition, the drug sensitivity score in the assay on HS-Sch-2 [13] stood at 10.6; in assay [14], 10.4; in the assay on S1507-2 [15] it was 9.24 ± 0.51. Moreover, the “% inhibition” value in the assay with HS-PSS [16] stood at 88.2%; in assay [17], 101%; in the assay on ST8814 [18], 88.3%; with YST-1 [19], 101%; in the assay on S462 [20], 98.64 ± 0.44%; with STS26T [21], 98.5%. Also, the “% inhibition” value in the assay with HS-Sch-2 [22] was determined as 102%; in assay [23], 99.9%; with S1507-2 [24] it was 96.11 ± 0.088%.

`Nc1ncn([C@H]2C[C@H](O)[C@@H](CO)O2)c(=O)n1` [Decitabine] (max concentration tested 10000 nM): the drug sensitivity score stood at 0 in the assay on HS-PSS [1]; 0 in [2]; 0 in the assay on ST8814 [3]; 0 in the assay on STS26T [4]; 0 in assay [5]; 0.342 ± 0.48 in the assay with S1507-2 [6]. Also, the drug sensitivity score in the assay on HS-PSS [7] amounted to 0; in assay [8] it was 1.61; in the assay with ST8814 [9] it was 1.82; in the assay on YST-1 [10], 0; in the assay with S462 [11] it was 4.99 ± 0.29; with STS26T [12], 0.745. The drug sensitivity score in the assay with HS-Sch-2 [13] was found to be 2.19; in assay [14], 3.33; in the assay with S1507-2 [15], 0.377 ± 0.53. The “% inhibition” value was found to be 4.62% in the assay on HS-PSS [16]; 27.7% in assay [17]; 18.8% with ST8814 [18]; 4.17% with YST-1 [19]; 37.4 ± 5.4% in the assay on S462 [20]; 16.2% with STS26T [21]. Besides, the “% inhibition” value in the assay on HS-Sch-2 [22] was determined as 27.8%; in assay [23], 20.3%; in the assay with S1507-2 [24], 16.3 ± 5.8%.

As to `C[C@@H]1C[C@H]2[C@@H]3CCC4=CC(=O)C=C[C@]4(C)[C@@]3(F)[C@@H](O)C[C@]2(C)[C@@]1(O)C(=O)CO` [Dexamethasone] (max concentration tested 10000 nM), the drug sensitivity score (with HS-PSS [1]; in assay [2]; in the assay on ST8814 [3]; in the assay on STS26T [4]; in assay [5]; with S1507-2 [6]) was 0 each time. Further, the drug sensitivity score was 0 in the assay with HS-PSS [7]; 0 in assay [8]; 4.78 in the assay with ST8814 [9]; 2.91 with YST-1 [10]; 0.0796 ± 0.11 in the assay with S462 [11]; 0 in the assay on STS26T [12]. The drug sensitivity score came out at 0 in the assay with HS-Sch-2 [13], 0 in [14] and 1.35 ± 1.9 with S1507-2 [15]. For the same molecule, the “% inhibition” value in the assay with HS-PSS [16] was -11.7%; in assay [17], -7.28%; in the assay on ST8814 [18] it was 22.9%; in the assay on YST-1 [19], 6.77%; in the assay on S462 [20], 9.85 ± 6.5%; with STS26T [21], 3.98%. Also, the “% inhibition” value in the assay with HS-Sch-2 [22] is 11.7%; in assay [23] it was -11.8%; with S1507-2 [24], 16.5 ± 13%.
